Data on eleven molecules can be found in ChEMBL document CHEMBL1201862, “PubChem BioAssay data set” (2004).

Holding throughout (experiment): DTP human tumour cell line panel, 48 h
In assay [1] the test system is MOLT-4.
For assay [2], the system named is RXF 393.
Assay [3] concerns MDA-MB-435.
Assay [4] deals with A549.
In assay [5] the test system is SK-MEL-28.
Assay [6] has as its system K562.
The test system of assay [7] is HT-29.
Assay [8] has as its system SF-268.
The subject of assay [9] is SR.
For assay [10], the system named is MDA-MB-231.
The test system of assay [11] is UACC-257.
Assay [12] has as its system LOX IMVI.
Assay [13] concerns MCF7.
Assay [14] has as its system T47D.
Assay [15] has as its system SW-620.
Assay [16] deals with SK-MEL-5.
Assay [17] has as its system A498.
The test system of assay [18] is HOP-62.
Assay [19] concerns SF-539.
For assay [20], the system named is RPMI-8226.

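How tested: cells in 96-well plates exposed to compound for 48 hours at five concentrations. GI50: concentration for 50% inhibition of growth.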 Active and inactive are the calls of the source. No stated cut-off is given here; in the data, active = GI50 up to about 1.1 µM and inactive = higher.

As for `CCOC(=O)C(COS(C)(=O)=O)(COS(C)(=O)=O)C(=O)OCC`, the GI50 in assay [1], in assay [2], in assay [3], in [4], in [5] and in assay [6] was > 100 µM (inactive) in each case. Further, the GI50 in [7], in [8], in assay [9], in assay [10], in [11] and in assay [12] was > 100 µM (inactive) each time. In addition, the GI50 in assay [13] was > 100 µM (inactive); in [14], > 100 µM (inactive); in assay [15] it was > 100 µM (inactive); in assay [16] it was > 100 µM (inactive); in [17], 11.1 µM (inactive).

In the case of `Cn1c2c(c3ccccc31)CCN=C2C1CCCOC1=O` (centres undefined), the GI50 in assay [18], in assay [2], in assay [3], in assay [4], in [5] and in [7] was > 100 µM (inactive) throughout. The GI50 in assay [8], in [9], in assay [10], in [11], in assay [12] and in [19] was > 100 µM (inactive) throughout. The GI50 in assay [13], in [14], in assay [15], in [16] and in assay [17] was > 100 µM (inactive) each time.

With `COc1ccc(CCNC(=O)CCc2ccccc2CO)cc1OC`, the GI50 in assay [18], in [1], in assay [2], in assay [3], in assay [20] and in [4] was > 100 µM (inactive) throughout. The GI50 in [5], in assay [6], in [7], in assay [8], in assay [9] and in assay [10] was > 100 µM (inactive) each time. Besides, the GI50 in assay [11], in [19], in assay [13], in assay [14], in assay [15] and in [16] was > 100 µM (inactive) throughout. The GI50 in assay [17] was > 100 µM (inactive).

In the case of `CC(=O)O[C@H]1CC[C@@]2(C)C(=CC[C@@H]3[C@@H]2CC[C@]2(C)Nc4c(cnn4S(C)(=O)=O)C[C@@H]32)C1`, the GI50 was 89.9 µM (inactive) in assay [18]; 20.1 µM (inactive) in assay [1]; 18.1 µM (inactive) in [2]; 46.8 µM (inactive) in assay [3]; 32.3 µM (inactive) in [20]; > 100 µM (inactive) in assay [5]. For the same molecule, the GI50 was 19.1 µM (inactive) in assay [6]; 21.9 µM (inactive) in assay [7]; 40.4 µM (inactive) in [9]; > 100 µM (inactive) in assay [10]; 28.9 µM (inactive) in assay [13]; 36.1 µM (inactive) in [14]. Besides, the GI50 in [16] was 16.4 µM (inactive); in assay [17], > 100 µM (inactive).

For `COc1cc(/C=C/c2cc(=O)cc(/C=C/c3ccc(O)c(OC)c3)o2)ccc1O`, the GI50 in assay [18] is 22 µM (inactive); in assay [2], 15.9 µM (inactive); in assay [3], 35.5 µM (inactive); in assay [20], 1.1 µM (active); in assay [4], 64.1 µM (inactive); in assay [5] it was > 100 µM (inactive). Moreover, the GI50 in assay [6] is > 21 µM (inactive); in assay [7], > 80.4 µM (inactive); in assay [8], 38 µM (inactive); in [9], > 23.6 µM (inactive); in assay [10], 26.4 µM (inactive); in assay [11] it was > 100 µM (inactive). Besides, the GI50 in assay [12] is 29.6 µM (inactive); in assay [19], > 62.5 µM (inactive); in assay [13], 6.27 µM (inactive); in [14], 15.3 µM (inactive); in [15], > 35.5 µM (inactive); in [16], 13.6 µM (inactive). Moreover, in [17], the GI50 was > 100 µM (inactive).

In the case of `Cc1cc(NS(=O)(=O)c2ccc(/N=[N+](\[O-])c3ccc(S(=O)(=O)Nc4cc(C)on4)cc3)cc2)no1`, the GI50 in assay [18], in [1], in assay [2], in [3], in [20] and in assay [4] was > 100 µM (inactive) in each case. Further, the GI50 in assay [6], in [7], in [8], in assay [9], in assay [10] and in [11] was > 100 µM (inactive) in each case. The GI50 in [12], in assay [19], in assay [13], in assay [14], in assay [16] and in [17] was > 100 µM (inactive) throughout.

Regarding `COc1ccc2c(c1OC)C(=O)N1C2=Cc2c(cc3c(c2OC)OCO3)CC1N(C)C` (centres undefined), the GI50 is 45.9 µM (inactive) in [18]; 34.5 µM (inactive) in [1]; 54.5 µM (inactive) in assay [2]; 53.3 µM (inactive) in assay [3]; 22.8 µM (inactive) in assay [20]; 47.4 µM (inactive) in [4]. Further, the GI50 in assay [5] was 46.1 µM (inactive); in [6] it was 30.3 µM (inactive); in assay [8], 63.5 µM (inactive); in assay [9], 28.9 µM (inactive); in assay [10], 81.1 µM (inactive); in assay [11], 88.3 µM (inactive). The GI50 in assay [19] is 59.2 µM (inactive); in assay [13], 58.7 µM (inactive); in assay [14], 24.4 µM (inactive); in assay [15], 62.1 µM (inactive); in assay [16], 45.1 µM (inactive); in [17] it was 47.8 µM (inactive).

Consider `N#CC(C#N)=C1/C(=C/C=C/C=C/C=C/c2ccc(N3CCCCC3)s2)S(=O)(=O)c2ccccc21`, for which the GI50 is 33.7 µM (inactive) in [18]; 14.9 µM (inactive) in assay [1]; > 100 µM (inactive) in [2]; > 100 µM (inactive) in [3]; 36.4 µM (inactive) in assay [20]; > 100 µM (inactive) in assay [4]. The GI50 in assay [5] is > 100 µM (inactive); in [6], > 100 µM (inactive); in assay [7], > 100 µM (inactive); in [9], 50.5 µM (inactive); in assay [10], > 100 µM (inactive); in assay [11], > 100 µM (inactive). The GI50 in [12] is > 100 µM (inactive); in [19] it was > 100 µM (inactive); in assay [13], > 100 µM (inactive); in [14], 80.9 µM (inactive); in assay [15] it was > 100 µM (inactive); in [16], > 100 µM (inactive). For the same molecule, the GI50 in assay [17] was > 100 µM (inactive).

For the molecule `O=c1cnn(C/C=C/CO)c(=O)[nH]1`, the GI50 in assay [18], in assay [2], in assay [3], in [20], in assay [4] and in assay [5] was > 100 µM (inactive) each time. The GI50 in assay [6] is > 100 µM (inactive); in [8], > 100 µM (inactive); in [9], > 100 µM (inactive); in assay [10], > 100 µM (inactive); in [11] it was > 100 µM (inactive); in assay [12], 28.3 µM (inactive). In addition, the GI50 in assay [13], in assay [14], in [15], in [16] and in [17] was > 100 µM (inactive) each time.

Regarding `Cc1ccccc1/N=N/c1c(O)c(S(=O)(=O)O)cc2cc(S(=O)(=O)O)ccc12`, the GI50 in assay [18], in assay [1], in assay [2], in [3], in assay [4] and in assay [5] was > 100 µM (inactive) each time. Moreover, the GI50 in assay [6], in assay [7], in [8], in assay [9], in assay [10] and in assay [11] was > 100 µM (inactive) each time. Moreover, the GI50 in [19], in [13], in [14], in [15], in [16] and in [17] was > 100 µM (inactive) throughout.

For the molecule `CSc1ccc2c(cc1=O)[C@@H](NC(C)=O)CCc1cc(O)c(O)c(O)c1-2`, the GI50 in [18] is 18 µM (inactive); in [1], 13.2 µM (inactive); in [2], 72.4 µM (inactive); in [3] it was 10.4 µM (inactive); in [20], 12.9 µM (inactive); in assay [4], 20.1 µM (inactive). The GI50 in assay [5] is > 100 µM (inactive); in assay [7], 9.82 µM (inactive); in assay [8] it was 16.3 µM (inactive); in assay [9], 7.8 µM (inactive); in [10], 23.9 µM (inactive); in [11] it was 37.2 µM (inactive). Besides, the GI50 was 23 µM (inactive) in assay [12]; 4.81 µM (inactive) in assay [13]; 60.4 µM (inactive) in assay [14]; 28.1 µM (inactive) in assay [15]; 32.4 µM (inactive) in assay [16]; 23.3 µM (inactive) in assay [17].
